# Assay results from ChEMBL document CHEMBL4665846, “Piperlonguminine and Piperine Analogues as TrxR Inhibitors that Promote ROS and Autophagy and Regulate p38 and Akt/mTOR Signaling” (J Nat Prod, 2020).
# Activity calls are given as the source filed them. No cut-off for these calls is given here.
# Experiments:
# Bel7402/5-FU [1] = test: Cytotoxicity against human BEL-7402/5-FU cells assessed as reduction in cell viability after 72 hrs by MTT assay; format: functional, cell-based
# HepG2 = test: Cytotoxicity against human HepG2 cells assessed as reduction in cell viability after 72 hrs by MTT assay; format: functional, cell-based; details: HepG2, 72 h
# HGC-27 [2] = test: Cytotoxicity against human HGC-27 cells assessed as reduction in cell viability after 72 hrs by MTT assay; format: functional, cell-based; details: HGC-27, 72 h
# Bel-7402 = test: Cytotoxicity against human Bel-7402 cells assessed as reduction in cell viability after 72 hrs by MTT assay; format: functional, cell-based; details: for IC50: Bel-7402, 72 h
# [3] = target: T1, Thioredoxin reductase 1, cytoplasmic (Homo sapiens, UniProt Q16881); test: Inhibition of TrxR in human BEL-7402/5-FU cells by colorimetric assay; format: cell-based
# T1 sequence (Q16881 whole entry): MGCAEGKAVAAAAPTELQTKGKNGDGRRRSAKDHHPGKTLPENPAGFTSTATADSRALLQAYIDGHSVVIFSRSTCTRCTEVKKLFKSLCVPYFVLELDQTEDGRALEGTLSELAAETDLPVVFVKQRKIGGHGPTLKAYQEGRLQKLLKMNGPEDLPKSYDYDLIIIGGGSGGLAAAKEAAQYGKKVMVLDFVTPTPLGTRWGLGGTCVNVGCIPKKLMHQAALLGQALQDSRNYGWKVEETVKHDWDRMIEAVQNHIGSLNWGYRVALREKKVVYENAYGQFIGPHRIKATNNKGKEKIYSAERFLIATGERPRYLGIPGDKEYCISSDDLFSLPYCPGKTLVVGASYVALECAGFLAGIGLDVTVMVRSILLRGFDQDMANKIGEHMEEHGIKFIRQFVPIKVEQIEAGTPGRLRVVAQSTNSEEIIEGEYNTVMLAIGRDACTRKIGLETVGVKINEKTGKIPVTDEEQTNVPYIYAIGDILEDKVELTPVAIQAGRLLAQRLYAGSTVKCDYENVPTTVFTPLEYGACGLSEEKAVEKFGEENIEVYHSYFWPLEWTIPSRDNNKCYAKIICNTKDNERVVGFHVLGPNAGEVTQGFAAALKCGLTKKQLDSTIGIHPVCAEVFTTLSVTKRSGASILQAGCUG
# [4] = target: T2, Thioredoxin reductase 1, cytoplasmic (Homo sapiens) (UniProt Q16881); test: Potency index, ratio of piperlongumine IC50 to test compound IC50 for inhibition of TrXr in human BEL-7402/5-FU cells; format: cell-based
# T2 sequence (whole entry): T1 sequence (Q16881 whole entry)
# Bel7402/5-FU [5] = test: Induction of mitochondrial membrane potential loss in human BEL-7402/5-FU cells at 10 uM after 24 hrs by JC-1 staining based fluorescence microscopic method; format: functional, cell-based
# HCT-116 = test: Cytotoxicity against human HCT-116 cells assessed as reduction in cell viability after 72 hrs by MTT assay; format: functional, cell-based; details: HCT-116, 72 h
# Bel7402/5-FU [6] = test: Induction of autophagy in human BEL-7402/5-FU cells expressing mRFP-eGFP-LC3 assessed as auto lysosomes at 2 uM after 24 hrs by confocal laser scanning microscopic method; format: functional, cell-based
# [7] = target: Serine/threonine-protein kinase mTOR (Homo sapiens) (UniProt P42345); test: Inhibition of mTOR phosphorylation in human BEL-7402/5-FU cells at 2 uM incubated for 72 hrs by Western blot analysis; format: cell-based
# Bel7402/5-FU [8] = test: Induction of autophagy in human BEL-7402/5-FU cells expressing mRFP-eGFP-LC3 assessed as autophagosomes at 2 uM after 24 hrs by confocal laser scanning microscopic method; format: functional, cell-based
# [9] = target: T3, Serine/threonine-protein kinase AKT (Homo sapiens) (UniProt P31751+Q9Y243+P31749); test: Inhibition of AKT phosphorylation in human BEL-7402/5-FU cells at 2 uM incubated for 72 hrs by Western blot analysis; format: cell-based
# T3 sequence (P31749 whole entry, looked up): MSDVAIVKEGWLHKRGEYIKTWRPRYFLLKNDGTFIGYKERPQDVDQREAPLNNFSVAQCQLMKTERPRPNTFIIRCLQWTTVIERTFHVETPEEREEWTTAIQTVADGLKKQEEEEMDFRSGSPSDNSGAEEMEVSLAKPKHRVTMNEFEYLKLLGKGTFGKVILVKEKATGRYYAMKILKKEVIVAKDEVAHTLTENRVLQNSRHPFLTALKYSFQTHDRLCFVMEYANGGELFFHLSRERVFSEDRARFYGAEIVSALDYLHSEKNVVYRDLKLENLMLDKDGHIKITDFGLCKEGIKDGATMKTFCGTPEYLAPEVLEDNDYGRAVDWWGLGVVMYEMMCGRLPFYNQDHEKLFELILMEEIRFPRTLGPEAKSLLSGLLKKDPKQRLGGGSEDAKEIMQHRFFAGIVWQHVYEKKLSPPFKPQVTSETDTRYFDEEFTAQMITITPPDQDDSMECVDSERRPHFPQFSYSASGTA
# T3 sequence (P31751 whole entry, looked up): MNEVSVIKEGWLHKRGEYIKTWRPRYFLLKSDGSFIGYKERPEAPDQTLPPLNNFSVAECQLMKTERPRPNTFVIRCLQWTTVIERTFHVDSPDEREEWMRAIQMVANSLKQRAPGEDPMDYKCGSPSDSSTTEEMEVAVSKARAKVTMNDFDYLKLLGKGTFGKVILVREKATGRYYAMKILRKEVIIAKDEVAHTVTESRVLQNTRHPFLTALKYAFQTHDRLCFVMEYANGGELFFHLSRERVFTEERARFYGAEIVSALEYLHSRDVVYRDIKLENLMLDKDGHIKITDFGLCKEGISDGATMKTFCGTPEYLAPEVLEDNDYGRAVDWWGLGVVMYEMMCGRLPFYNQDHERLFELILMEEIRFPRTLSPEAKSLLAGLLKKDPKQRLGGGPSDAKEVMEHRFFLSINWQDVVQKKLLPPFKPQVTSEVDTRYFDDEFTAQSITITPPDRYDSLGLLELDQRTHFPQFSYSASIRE
# T3 sequence (Q9Y243 whole entry, looked up): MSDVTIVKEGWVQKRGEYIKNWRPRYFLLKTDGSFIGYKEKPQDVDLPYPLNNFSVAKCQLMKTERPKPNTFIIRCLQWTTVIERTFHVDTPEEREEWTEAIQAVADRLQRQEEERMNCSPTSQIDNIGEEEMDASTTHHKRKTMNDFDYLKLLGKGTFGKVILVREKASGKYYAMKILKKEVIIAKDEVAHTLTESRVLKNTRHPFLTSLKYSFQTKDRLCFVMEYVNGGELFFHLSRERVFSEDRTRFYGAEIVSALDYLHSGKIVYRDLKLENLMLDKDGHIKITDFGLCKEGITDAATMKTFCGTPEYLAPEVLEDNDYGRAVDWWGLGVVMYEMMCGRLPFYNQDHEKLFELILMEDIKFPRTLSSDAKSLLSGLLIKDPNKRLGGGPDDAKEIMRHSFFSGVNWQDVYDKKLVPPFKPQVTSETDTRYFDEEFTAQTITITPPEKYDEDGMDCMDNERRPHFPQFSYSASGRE
# [10] = target: T4, MAP kinase p38 (Homo sapiens) (UniProt O15264+Q15759+Q16539+P53778); test: Activation of p38 phosphorylation in human BEL-7402/5-FU cells at 2 uM incubated for 72 hrs by Western blot analysis; format: cell-based; details: filed as activator
# [11] = target: T3, Serine/threonine-protein kinase AKT (Homo sapiens); test: Inhibition of AKT phosphorylation in human BEL-7402/5-FU cells incubated for 72 hrs by Western blot analysis; format: cell-based; details: dose microM 0.32-2, time 72.0 hrs
# Bel7402/5-FU [12] = test: Induction of autophagy in human BEL-7402/5-FU cells expressing mRFP-eGFP-LC3 assessed as auto lysosomes at 0.8 to 2 uM after 24 hrs by confocal laser scanning microscopic method; format: functional, cell-based; details: dose microM 0.8-2, time 24.0 hrs
# Bel7402/5-FU [13] = test: Induction of mitochondrial membrane potential loss in human BEL-7402/5-FU cells at 1 uM after 24 hrs by JC-1 staining based fluorescence microscopic method relative to piperlongumine; format: functional
# Bel7402/5-FU [14] = test: Induction of autophagy in human BEL-7402/5-FU cells assessed as up regulation of LC3-2 protein expression after 72 hrs by Western blot analysis; format: functional, cell-based; details: dose microM 0.32-2, time 72.0 hrs
# Bel7402/5-FU [15] = test: Induction of autophagy in human BEL-7402/5-FU cells assessed as up regulation of beclin-1 protein expression after 72 hrs by Western blot analysis; format: functional, cell-based; details: dose microM 0.32-2, time 72.0 hrs
# Bel7402/5-FU [16] = test: Induction of autophagy in human BEL-7402/5-FU cells assessed as down regulation of P62 protein expression after 72 hrs by Western blot analysis; format: functional, cell-based; details: dose microM 0.32-2, time 72.0 hrs
# HGC-27 [17] = test: Potency index, ratio of piperlongumine IC50 to test compound IC50 for cytotoxicity against human HGC-27 cells; format: functional
# [18] = target: T4, MAP kinase p38 (Homo sapiens); test: Activation of p38 phosphorylation in human BEL-7402/5-FU cells incubated for 72 hrs by Western blot analysis; format: cell-based; details: filed as activator, dose microM 0.32-2, time 72.0 hrs
# Bel7402/5-FU [19] = test: Potency index, ratio of piperlongumine IC50 to test compound IC50 for cytotoxicity against human BEL-7402/5-FU cells; format: functional
# [20] = Selectivity ratio of IC50 for cytotoxicity against human L02 cells to IC50 for cytotoxicity against human BEL-7402/5-FU cells
# Bel7402/5-FU [21] = test: Induction of autophagy in human BEL-7402/5-FU cells assessed as down regulation of LC3-1 protein expression after 72 hrs by Western blot analysis; format: functional, cell-based; details: dose microM 0.32-2, time 72.0 hrs
# [22] = Selectivity ratio of IC50 for cytotoxicity against human L02 cells to IC50 for cytotoxicity against human Bel-7402 cells; format: toxicity, cell-based; details: L02 cells and Bel-7402 cells, read-out: Ratio IC50
# [23] = target: Serine/threonine-protein kinase mTOR (Homo sapiens) (UniProt P42345); test: Inhibition of mTOR phosphorylation in human BEL-7402/5-FU cells incubated for 72 hrs by Western blot analysis; format: cell-based; details: dose microM 0.32-2, time 72.0 hrs
# Bel7402/5-FU [24] = test: Induction of autophagy in human BEL-7402/5-FU cells expressing mRFP-eGFP-LC3 assessed as autophagosomes at 0.8 to 2 uM after 24 hrs by confocal laser scanning microscopic method; format: functional, cell-based; details: dose microM 0.8-2, time 24.0 hrs
# Bel7402/5-FU [25] = test: Induction of ROS generation in human BEL-7402/5-FU cells at 10 uM using H2O2 as substrate preincubated for 24 hrs followed by substrate addition and measured after 6 hrs by ROS-Glo assay relative to control; format: functional
SMILES,IC50 (Bel7402/5-FU [1]) [µM],IC50 (HepG2) [µM],IC50 (HGC-27 [2]) [µM],IC50 (Bel-7402) [µM],IC50 (HCT-116) [µM],other results
CN(C)c1ccc(/C=C/C=C2\CCC=CC2=O)cc1,1,1.1,1.5,0.9,1.2,IC50 [3]: 200 nM; Ratio IC50 [4]: 9; Activity (Bel7402/5-FU [5]): Active
O=C1C=CCC/C1=C\C=C\c1ccc(Cl)cc1,3.2,3.7,4.8,3.2,3.5,–
COc1ccc(/C=C/C=C2\CCC=CC2=O)cc1,1.7,2.4,3.2,1.4,2.1,IC50 [3]: 400 nM; Activity (Bel7402/5-FU [5]): Active
O=C1C=CCC/C1=C\C=C\c1ccc(F)cc1,1.9,2.9,2.3,1.8,2.2,IC50 [3]: 600 nM; Activity (Bel7402/5-FU [5]): Active
CC(=C\c1ccccc1)/C=C1\CCC=CC1=O,4.2,4.6,5.2,3.9,4.8,–
COc1ccccc1/C=C/C=C1\CCC=CC1=O,2.5,5.8,3.1,2.6,2.8,–
O=C(/C=C/C=C/c1ccc2c(c1)OCO2)N1CCCCC1 [PIPERINE],–,> 10,–,> 10,–,–
O=C1C=CCC/C1=C\C=C\c1ccc(Br)cc1,4.3,6.1,4.5,3.6,5.2,–
COc1cc(/C=C/C(=O)N2CCC=CC2=O)cc(OC)c1OC [PIPLARTINE],–,–,8.1,–,6.9,Activity (Bel7402/5-FU [6]): Active; inhibition [7]: Active; Activity (Bel7402/5-FU [8]): Active; inhibition [9]: Active; Activity [10]: Active
O=C1C=CCC/C1=C\C=C\c1ccccc1[N+](=O)[O-],5.2,6.8,4.4,4.6,6.2,–
O=C1C=CCC/C1=C\C(Br)=C\c1ccccc1,> 10,> 10,> 10,> 10,> 10,–
O=C1C=CCC/C1=C\C=C\c1ccccc1,4.2,7.1,4.5,4.2,5.4,–
Cc1ccc(/C=C/C=C2\CCC=CC2=O)cc1,5.8,8.6,8.1,6.3,7.2,–
O=C1C=CCC/C1=C\C=C\c1ccc([N+](=O)[O-])cc1,4.5,4.9,5.2,4.2,5,–
COc1cc(/C=C/C=C2\CCC=CC2=O)ccc1O,0.8,0.9,1.2,0.8,0.9,Activity (Bel7402/5-FU [1]): Dose-dependent effect; inhibition [11]: Dose-dependent effect; Activity (Bel7402/5-FU [12]): Active; fold change (FC) (Bel7402/5-FU [13]): 10; Activity (Bel7402/5-FU [14]): Dose-dependent effect; Activity (Bel7402/5-FU [15]): Dose-dependent effect; Activity (Bel7402/5-FU [16]): Dose-dependent effect; Ratio IC50 (HGC-27 [17]): 7; Activity [18]: Dose-dependent effect; Ratio IC50 (Bel7402/5-FU [19]): 10; Ratio IC50 [20]: 6; Activity (Bel7402/5-FU [21]): Dose-dependent effect; Activity (Bel-7402): Dose-dependent effect; selectivity ratio [22]: 6; inhibition [23]: Dose-dependent effect; IC50 [3]: 200 nM; Ratio IC50 [4]: 9; Activity (Bel7402/5-FU [5]): Active; Activity (Bel7402/5-FU [24]): Active; Activity (Bel7402/5-FU [25]): 50%
CC(=O)Oc1ccc(/C=C/C=C2\CCC=CC2=O)cc1,4.1,4.5,4.9,3.8,4.6,–
